Experiment [1] concerns human embryonic stem cells (hESCs; H9). Nature of the experiment: Induction of late primitive streak from hESCs with CHIR. Format: cell-based. Conditions: CHIR 8 μM over 4 days. As to the method:
hPSCs grown on Geltrex were washed once with PBS (Life Technologies, #10010-049) and dissociated into single cells with Accutase ([…] Technologies, #07920). Cells were then plated at a density of 2-2.4×10^4 (H9) or 1-1.4×10^4 (HDF, 2C) cells/cm^2 onto 24-well tissue culture plates (TPP, #92024) coated with 1% Geltrex in ReproFF2 supplemented with the ROCK inhibitor Y27632 (10 μM) (TOCRIS, #1254) and FGF2 (10 ng/ml). After 72 hours, cells (50% confluent) were briefly washed in PBS and then cultured in basic differentiation medium consisting of Advanced RPMI 1640 (Life Technologies, #12633-020) and 1X L-GlutaMAX (Life Technologies, #35050-061) supplemented with CHIR99021 (8-10 μM) (TOCRIS, #4423) for 4 days to induce late primitive streak cells Noggin (5 ng/ml) was also used for hiPSC differentiation in addition to CHIR (10 μM). To induce posterior intermediate mesoderm, cells were then cultured in Advanced RPMI+1X L-GlutaMAX+activin (10 ng/mL) (R&D, #338-AC-050) for 3 days. For induction of nephron progenitor cells, the media was then changed to Advanced RPMI+1X L-GlutaMAX+FGF9 (10 ng/ml) (R&D, #273-F9-025/CF) for 7 days. CHIR (3 μM) was added to the media from day 9 to 11 of differentiation to induce renal vesicles. On day 14, cells were switched to the basic differentiation medium and cultured for an additional 7 to 14 days (total of 21 to 28 days). […]

A further experiment deals with NPCs. Nature of the experiment: Induction of pre-tubular aggregates and renal vesicles from nephron progenitor cells. Format: cell-based, human. The procedure:
hPSCs grown on Geltrex were washed once with PBS (Life Technologies, #10010-049) and dissociated into single cells with Accutase ([…] Technologies, #07920). Cells were then plated at a density of 2-2.4×10^4 (H9) or 1-1.4×10^4 (HDF, 2C) cells/cm^2 onto 24-well tissue culture plates (TPP, #92024) coated with 1% Geltrex in ReproFF2 supplemented with the ROCK inhibitor Y27632 (10 μM) (TOCRIS, #1254) and FGF2 (10 ng/ml). After 72 hours, cells (50% confluent) were briefly washed in PBS and then cultured in basic differentiation medium consisting of Advanced RPMI 1640 (Life Technologies, #12633-020) and 1X L-GlutaMAX (Life Technologies, #35050-061) supplemented with CHIR99021 (8-10 μM) (TOCRIS, #4423) for 4 days to induce late primitive streak cells Noggin (5 ng/ml) was also used for hiPSC differentiation in addition to CHIR (10 μM). To induce posterior intermediate mesoderm, cells were then cultured in Advanced RPMI+1X L-GlutaMAX+activin (10 ng/mL) (R&D, #338-AC-050) for 3 days. For induction of nephron progenitor cells, the media was then changed to Advanced RPMI+1X L-GlutaMAX+FGF9 (10 ng/ml) (R&D, #273-F9-025/CF) for 7 days. CHIR (3 μM) was added to the media from day 9 to 11 of differentiation to induce renal vesicles. On day 14, cells were switched to the basic differentiation medium and cultured for an additional 7 to 14 days (total of 21 to 28 days). The medium was replaced every 2 or 3 days. A variety of growth factors and small molecules were tested for differentiation.
hPSCs on day 9 of differentiation, which represents metanephric mesenchyme cells, were dissociated with Accutase and resuspended in the basic differentiation medium supplemented with CHIR (3 μM) and FGF9 (10 ng/mL), and placed in 96-well, round bottom, ultra-low attachment plates (Corning, #7007) at 1×10^5 cells per well. The plates were centrifuged at 1500 rpm for 15 seconds, and the cells then cultured at 37° C., 5% CO2 for 2 days. The medium was then changed to the basic differentiation medium supplemented with FGF9 10 ng/mL and cultured for 3 more days. […]

The test system of another experiment is NPCs in 3D culture. Nature of the experiment: Growth factor and small molecule screening in 3D culture (LTL+ tubules). It counts as cell-based, human. To be noted: added in 3D culture from day 10. As to the method:
FIG. 10. Spontaneous differentiation of SIX2+ cells into nephrons and growth factor screening in 3D culture. (a) Staining with PAX8 and LHX1 in hESCs on day 10 of the differentiation. hESCs were differentiated with CHIR 8 µM for 4 days, activn 10 ng/ml for 3 days, and FGF9 10 ng/ml for 3 days. […] Scale bar: 50 μm. (b) Brighfield imaging for hESCs on day 10 and 21 of the differentiation. FGF9 was withdrawn on day 10, and cells were cultured in the basic medium by day 21. Scale bars: 50 μm. (c) Brightfield and immunocytochemistry for LTL and NPHS1 in hESCs on day 28 of the differentiation. Scale bar: 50 μm. (d) The protocol for growth factor screening. Cells were replated to 3D culture on day 10, and the listed growth factors and small molecules were tested. (e) The number of LTL+ tubules in the organoids. […] (f) Brightfield imaging of 3D co-culture with an ureteric bud cell sphere. Scale bar: 100 μm. (g) Whole-mountstaining for LTL in the organoids on day 16. Scale bar: 100 μm. (h) Immunohistochemistry of the organoids on day 16. Scale bars: 50 μm. LTL: lotus tetragonolobus lectin. NPHS1: Nephrin.
To test whether the formation of epithelial structures could be facilitated by 3D culture conditions, on day 10, at the time of FGF9 withdrawal, the Inventors replated NPCs in ultra-low-attachment, round-bottom 96-well plates and cultured them for 1 week. NPCs formed 3D spherical aggregates, one per 96-well, in suspension culture.

The test system of a further experiment is ARPKD-iPS organoids. Nature of the experiment: ARPKD organoid cyst formation in 3D culture. It counts as cell-based, human. To be noted: forskolin treatment, 96-well plates, 24 in 24 organoids. The text has this:
FIG. 26. Autosomal recessive polycystic kidney disease (ARPKD), organoid in 3D culture. This was done in 96-well plates. Cyst formation was 100% (24 in 24 organoids) in ARPKD-iPS with forskolin treatment. PKHD1 mutants were generated with CRISPR. The cystic phenotype appear from very early stage (day 22˜), meaning high-scale drug screening can be done, since media change will be much less frequent.

The test system of experiment [2] is hPSC-derived renal vesicles. Nature of the experiment: Kidney development analysis (Notch inhibition) in kidney organoids. To be noted: DAPT 10 μM from day 14 to 21, 2D and 3D culture. Format: cell-based, human. As to the method: FIG. 6. Modeling kidney development and injury in kidney organoids. (a) Schematic for kidney development analysis and nephrotoxicity assay. (b) Representative images of immunohistochemistry in structures derived from hESCs treated with DAPT 10 μM from day 14 to 21. n=4. Notch inhibition suppressed proximal tubule formation. Scale bars: 50 μm. […] Scale bars: 50 μm. […] (d) A low magnification image of gentamicin-treated organoids. Scale bar: 100 μm. CDH1: Cadherin-1 (E-cadherin). PODXL: Podocalyxin-like (Podocalyxin). LTL: lotus tetragonolobus lectin. KIM-1: kidney injury molecule-1. (e) Real-time quantitative PCR of KIM-1 in kidney organoids treated with gentamicin at indicated doses. Data is expressed as mean+/−SEM (n=10). […] Scale bars: 50 μm.
FIG. 12. Kidney development analysis. (a) DAPT was used to suppress Notch signaling from day 14 to 21. (b) CDH1, PODXL and LTL expression on day 21 in cells derived from hESCs in 2D culture. Scale bars: 50 (c) Percentage of LTL+ nephron structures in control and DAPT-treated on day 21. The nephron number was counted as CDH1+ tubules from 10 fields (×20 magnification) of each sample (n=2). CDH1: Cadherin-1 (E-cadherin). PODXL: Podocalyxin-like (Podocalyxin). […]

Regarding `Cc1c[nH]c(-c2cnc(NCCNc3ccc(C#N)cn3)nc2-c2ccc(Cl)cc2Cl)n1` [CHIR, CHIR99021], the “induction of T+TBX6+ primitive streak cells” value in experiment [1] was “robustly induced and maintained a population of T+TBX6+ primitive streak cells”. For the same compound, in the experiment on NPCs (3D culture from day 9, studied on day 14, versus basic medium (ARPMI)), the “size of the organoids” value is “increased the size of the organoids”. For the same compound, in the experiment with NPCs (CHIR 3 μM for 2 days from day 9 with FGF9 days 7-14, 2D culture), the “number of cells that downregulated SIX2 and co-expressed PAX8 and LHX1” value is “markedly increased”. The “PAX8+LHX1+ differentiated cells by flow cytometry” value with NPCs (CHIR 3 μM for 2 days from day 9 with FGF9 days 7-14, 2D culture, day 14) is around 75.9%. Besides, in the experiment on NPCs in 3D culture, the “number of LTL+ tubules in the organoids” value is recorded as “did not significantly increase the number of LTL+ tubules”.
In the experiment with ARPKD-iPS organoids, `C=C[C@@]1(C)CC(=O)[C@]2(O)[C@@]3(C)[C@@H](O)CCC(C)(C)[C@@H]3[C@H](O)[C@H](OC(C)=O)[C@@]2(C)O1` [forskolin] displayed a cyst formation of 100%.
Consider `C[C@H](NC(=O)Cc1cc(F)cc(F)c1)C(=O)N[C@H](C(=O)OC(C)(C)C)c1ccccc1` [DAPT], for which the proximal tubule formation result in experiment [2] was “marked suppression of proximal tubule formation”.

For the origin of these results see US20180258404A1, “METHODS OF GENERATING NEPHRONS FROM HUMAN PLURIPOTENT STEM CELLS” (THE BRIGHAM AND WOMEN'S HOSPITAL, INC., priority 2015, published 2018).
